From US10081635B2, “Substituted N-(pyrrolidine-3-yl)-7H-pyrrolo[2,3-D]pyrimidine-4-amine as janus kinase inhibitor” (YANG JI CHEMICAL CO., LTD., priority 2014, dated 2018)
Counter-ions that a name gives are not always drawn. Like-named read-outs stand apart in the source and are kept apart here.

Assays:
[1] = target: T1, Human JAK1 (Homo sapiens (Human), UniProt P23458); experiment: In vitro kinase inhibition test, JAK1 (33P-ATP filter scintillation); assay type: biochemical; settings: compound at 1 uM; read-out: JAK1 kinase-phosphorylation inhibitory level (% inhibition)
T1 sequence (P23458 whole entry): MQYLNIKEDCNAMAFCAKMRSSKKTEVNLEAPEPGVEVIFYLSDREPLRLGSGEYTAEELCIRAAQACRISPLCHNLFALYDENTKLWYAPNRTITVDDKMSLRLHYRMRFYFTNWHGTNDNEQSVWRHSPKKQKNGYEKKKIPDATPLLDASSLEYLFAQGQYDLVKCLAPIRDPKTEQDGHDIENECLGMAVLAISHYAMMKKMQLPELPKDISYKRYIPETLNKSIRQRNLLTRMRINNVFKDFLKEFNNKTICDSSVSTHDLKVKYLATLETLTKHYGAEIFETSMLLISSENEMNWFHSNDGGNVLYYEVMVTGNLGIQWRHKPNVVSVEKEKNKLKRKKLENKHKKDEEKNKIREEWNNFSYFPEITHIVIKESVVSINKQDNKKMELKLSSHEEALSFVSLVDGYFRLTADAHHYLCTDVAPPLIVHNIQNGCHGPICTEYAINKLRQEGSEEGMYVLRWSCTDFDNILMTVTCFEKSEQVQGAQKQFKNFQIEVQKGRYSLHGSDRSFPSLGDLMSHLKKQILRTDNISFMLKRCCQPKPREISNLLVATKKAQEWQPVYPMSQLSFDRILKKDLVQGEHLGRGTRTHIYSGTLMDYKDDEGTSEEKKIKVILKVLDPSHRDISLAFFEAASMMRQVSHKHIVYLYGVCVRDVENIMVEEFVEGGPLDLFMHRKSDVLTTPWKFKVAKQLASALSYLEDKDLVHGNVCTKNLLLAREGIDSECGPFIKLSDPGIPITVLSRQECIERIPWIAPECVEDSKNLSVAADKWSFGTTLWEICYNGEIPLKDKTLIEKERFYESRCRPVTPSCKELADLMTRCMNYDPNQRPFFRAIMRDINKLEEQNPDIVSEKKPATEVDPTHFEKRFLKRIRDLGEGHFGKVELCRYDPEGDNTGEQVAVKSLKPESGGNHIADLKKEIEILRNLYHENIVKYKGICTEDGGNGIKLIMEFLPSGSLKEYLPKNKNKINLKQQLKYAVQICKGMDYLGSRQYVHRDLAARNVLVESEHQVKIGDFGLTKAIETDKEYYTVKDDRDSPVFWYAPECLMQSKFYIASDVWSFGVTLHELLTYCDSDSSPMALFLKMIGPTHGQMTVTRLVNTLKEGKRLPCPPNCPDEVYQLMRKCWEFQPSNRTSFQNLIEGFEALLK

[2] = target: T2, Human JAK2 (Homo sapiens (Human), UniProt O60674); experiment: In vitro kinase inhibition test, JAK2 (33P-ATP filter scintillation); assay type: biochemical; settings: compound at 1 uM; read-out: JAK2 kinase-phosphorylation inhibitory level (% inhibition)
T2 sequence (O60674 whole entry): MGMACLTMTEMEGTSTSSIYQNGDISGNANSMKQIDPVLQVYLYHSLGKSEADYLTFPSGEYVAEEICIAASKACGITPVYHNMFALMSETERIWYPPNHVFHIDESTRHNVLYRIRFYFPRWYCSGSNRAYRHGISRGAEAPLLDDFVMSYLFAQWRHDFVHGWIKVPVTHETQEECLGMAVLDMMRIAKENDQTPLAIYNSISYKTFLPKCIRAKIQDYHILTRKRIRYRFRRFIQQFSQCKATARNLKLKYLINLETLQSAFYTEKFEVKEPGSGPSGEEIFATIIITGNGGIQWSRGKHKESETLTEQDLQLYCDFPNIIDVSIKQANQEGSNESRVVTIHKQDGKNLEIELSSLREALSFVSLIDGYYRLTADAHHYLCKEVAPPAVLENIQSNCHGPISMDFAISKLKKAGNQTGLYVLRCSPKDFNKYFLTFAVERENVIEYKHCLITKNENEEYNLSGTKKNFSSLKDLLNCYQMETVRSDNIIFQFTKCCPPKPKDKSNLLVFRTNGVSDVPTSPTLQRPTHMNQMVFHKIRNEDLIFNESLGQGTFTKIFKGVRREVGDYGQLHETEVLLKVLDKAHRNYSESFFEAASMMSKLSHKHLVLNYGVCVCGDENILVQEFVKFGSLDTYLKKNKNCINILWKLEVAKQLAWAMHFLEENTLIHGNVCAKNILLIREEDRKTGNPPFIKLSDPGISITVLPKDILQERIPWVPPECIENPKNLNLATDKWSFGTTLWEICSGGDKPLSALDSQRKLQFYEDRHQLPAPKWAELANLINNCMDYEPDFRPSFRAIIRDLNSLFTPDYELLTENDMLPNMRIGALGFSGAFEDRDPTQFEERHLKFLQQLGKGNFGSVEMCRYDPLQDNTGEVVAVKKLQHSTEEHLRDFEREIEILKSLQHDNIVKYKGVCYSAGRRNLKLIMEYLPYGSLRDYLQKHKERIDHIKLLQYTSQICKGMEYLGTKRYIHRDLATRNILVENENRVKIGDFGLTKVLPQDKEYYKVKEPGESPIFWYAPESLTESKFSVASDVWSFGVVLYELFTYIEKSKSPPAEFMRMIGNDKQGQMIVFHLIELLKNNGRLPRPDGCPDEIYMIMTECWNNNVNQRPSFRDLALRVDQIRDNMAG

[3] = target: T3, Human JAK3 (Homo sapiens (Human), UniProt P52333); experiment: In vitro kinase inhibition test, JAK3 (33P-ATP filter scintillation); assay type: biochemical; settings: compound at 1 uM; read-out: JAK3 kinase-phosphorylation inhibitory level (% inhibition)
T3 sequence (P52333 whole entry): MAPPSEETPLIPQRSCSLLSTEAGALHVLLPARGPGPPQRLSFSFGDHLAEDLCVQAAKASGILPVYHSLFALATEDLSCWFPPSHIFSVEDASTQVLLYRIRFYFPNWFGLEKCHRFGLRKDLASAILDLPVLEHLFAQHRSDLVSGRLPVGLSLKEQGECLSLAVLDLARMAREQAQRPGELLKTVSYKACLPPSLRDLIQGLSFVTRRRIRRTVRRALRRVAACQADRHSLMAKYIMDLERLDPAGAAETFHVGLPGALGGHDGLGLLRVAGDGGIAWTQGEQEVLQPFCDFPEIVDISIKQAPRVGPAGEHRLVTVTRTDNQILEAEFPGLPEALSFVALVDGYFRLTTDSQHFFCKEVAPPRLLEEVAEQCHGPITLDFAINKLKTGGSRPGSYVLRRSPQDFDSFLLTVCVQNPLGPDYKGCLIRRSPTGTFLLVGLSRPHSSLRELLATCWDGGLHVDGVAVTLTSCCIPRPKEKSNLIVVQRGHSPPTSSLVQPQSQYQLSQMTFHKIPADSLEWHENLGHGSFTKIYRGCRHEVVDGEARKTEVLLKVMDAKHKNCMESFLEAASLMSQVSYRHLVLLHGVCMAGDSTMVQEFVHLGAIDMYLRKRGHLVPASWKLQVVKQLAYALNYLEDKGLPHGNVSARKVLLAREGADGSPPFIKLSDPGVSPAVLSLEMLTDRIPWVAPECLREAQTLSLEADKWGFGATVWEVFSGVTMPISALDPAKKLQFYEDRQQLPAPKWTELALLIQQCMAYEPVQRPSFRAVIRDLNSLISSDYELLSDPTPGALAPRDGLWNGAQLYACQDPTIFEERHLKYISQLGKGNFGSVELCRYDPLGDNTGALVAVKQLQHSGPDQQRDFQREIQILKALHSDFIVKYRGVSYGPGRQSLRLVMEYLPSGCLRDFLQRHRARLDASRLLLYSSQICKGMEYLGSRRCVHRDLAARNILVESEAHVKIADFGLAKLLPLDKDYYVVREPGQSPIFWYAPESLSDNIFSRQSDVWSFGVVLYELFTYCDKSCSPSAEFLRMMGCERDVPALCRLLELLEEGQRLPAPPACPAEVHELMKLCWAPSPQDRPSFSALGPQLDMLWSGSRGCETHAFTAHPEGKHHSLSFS

[4] = target: T4, Human TYK2 (Homo sapiens (Human), UniProt P29597); experiment: In vitro kinase inhibition test, TYK2 (33P-ATP filter scintillation); assay type: biochemical; settings: compound at 1 uM; read-out: TYK2 kinase-phosphorylation inhibitory level (% inhibition)
T4 sequence (P29597 whole entry): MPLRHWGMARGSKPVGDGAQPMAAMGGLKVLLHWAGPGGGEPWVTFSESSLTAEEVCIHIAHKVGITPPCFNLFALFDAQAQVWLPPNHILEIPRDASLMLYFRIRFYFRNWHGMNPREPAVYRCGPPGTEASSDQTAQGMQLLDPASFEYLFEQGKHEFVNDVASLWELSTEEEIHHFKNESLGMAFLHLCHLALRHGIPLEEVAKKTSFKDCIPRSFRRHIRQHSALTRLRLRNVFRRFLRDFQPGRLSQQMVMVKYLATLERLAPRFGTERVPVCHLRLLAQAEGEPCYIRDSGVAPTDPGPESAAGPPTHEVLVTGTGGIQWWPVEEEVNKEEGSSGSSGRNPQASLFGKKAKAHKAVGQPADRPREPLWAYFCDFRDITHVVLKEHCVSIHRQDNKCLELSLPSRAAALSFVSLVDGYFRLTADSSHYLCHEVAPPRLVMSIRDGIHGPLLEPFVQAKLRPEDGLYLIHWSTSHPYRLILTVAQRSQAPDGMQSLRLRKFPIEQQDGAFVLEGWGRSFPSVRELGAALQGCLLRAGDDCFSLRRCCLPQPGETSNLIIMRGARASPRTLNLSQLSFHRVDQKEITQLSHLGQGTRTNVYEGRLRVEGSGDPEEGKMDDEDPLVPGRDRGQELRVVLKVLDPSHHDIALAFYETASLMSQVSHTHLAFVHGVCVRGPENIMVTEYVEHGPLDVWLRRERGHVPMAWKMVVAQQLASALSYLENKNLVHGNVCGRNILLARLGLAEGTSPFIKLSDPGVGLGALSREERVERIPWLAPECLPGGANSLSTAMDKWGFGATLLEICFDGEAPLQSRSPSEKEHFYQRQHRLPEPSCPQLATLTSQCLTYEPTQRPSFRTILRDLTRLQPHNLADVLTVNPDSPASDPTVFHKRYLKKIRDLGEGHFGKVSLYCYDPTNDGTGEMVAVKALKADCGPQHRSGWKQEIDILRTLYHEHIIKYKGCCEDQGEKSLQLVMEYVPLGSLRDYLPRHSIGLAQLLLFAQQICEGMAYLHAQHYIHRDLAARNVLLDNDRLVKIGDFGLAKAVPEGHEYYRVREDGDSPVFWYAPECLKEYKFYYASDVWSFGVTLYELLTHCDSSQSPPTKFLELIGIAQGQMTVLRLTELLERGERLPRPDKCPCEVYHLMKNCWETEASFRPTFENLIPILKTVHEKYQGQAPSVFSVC

[5] = target: T1, Human JAK1; experiment: In vitro kinase inhibition test, JAK1 (33P-ATP filter scintillation); assay type: biochemical
[6] = target: T2, Human JAK2; experiment: In vitro kinase inhibition test, JAK2 (33P-ATP filter scintillation); assay type: biochemical
[7] = target: T3, Human JAK3; experiment: In vitro kinase inhibition test, JAK3 (33P-ATP filter scintillation); assay type: biochemical
[8] = target: T4, Human TYK2; experiment: In vitro kinase inhibition test, TYK2 (33P-ATP filter scintillation); assay type: biochemical
[9] = test system: DBA/1J mice; experiment: Collagen-induced arthritis (CIA) model, hind paw edema volume; assay type: in vivo, mouse; settings: 50 mg/kg oral once a day
Description: 2. Collagen-induced Arthritis (CIA) Model
DBA/1J mice (6 weeks old, male) were purchased from Japan SLC, Inc., and maintained under controlled lighting in a 12-hour light/dark cycle (07:00-19:00). The temperature was maintained at about 22° C., and the mice were allowed to freely have feed and drinking water.
Type II collagen (dissolved in 0.05 M acetic acid (2 mg/mL)) was kept at 4° C. prior to induction. On the first day of induction, prior to a first immunization, a complete Freund's adjuvant and type II collagen in an equal ratio were homogenized in a cooled tube using a homogenizer to obtain an emulsion of the type II collagen and the Freund's adjuvant. 0.1 mL of the emulsion was injected into mouse tails for the first immunization. […]
Therapeutic efficacy of the compounds according to embodiments was determined using a collagen-induced mouse animal model. […]
The degree of arthritic disease was determined based on the degree of paw edema obtained by measuring a volume of mouse hind paws of the experimental animals. A volume change in the hind paws was measured using a volume measuring flowmeter (Plethysmometer, Havard apparatus, USA, Cat no. 760220), wherein the volume was measured by putting the mouse hind legs into a measurement cell, from knee to paw. The volumes of both paws were measured, and a larger volume value between the two was used as a representative value. […]

inhibition at 1 µM [1] [%] | inhibition at 1 µM [2] [%] | inhibition at 1 µM [3] [%] | inhibition at 1 µM [4] [%] | IC50 [5] [nM] | IC50 [6] [nM] | IC50 [7] [nM] | IC50 [8] [nM] | JAK1 inhibitory activity relative to the racemic mixture (Example 55) ([5]; from IC50 values 8.5 nM vs 29.3 nM) | inhibition at 1 µM ([8]; read-out: TYK2 kinase-phosphorylation inhibitory level (% inhibition)) [%] | Structure (SMILES) | inhibition of hind paw edema as compared to the control group ([9]; 49th day after the first immunization (end of measurement)) | inhibition of hind paw edema as compared to the control group ([9]; from the 31st day after the first immunization onwards) [%]
95 | 53 | 30 | 58 | 29.3 | 148 | 694 | 40.4 | – | – | CN(c1ncnc2[nH]ccc12)C1CN(C(=O)CC#N)CC12CC2 (racemic) [Example 55, 3-(7-(methyl(7H-pyrrolo[2,3-d]pyrimidin-4-yl)amino)-5-azaspiro[2.4]heptan-5-yl)-3-oxopropanenitrile] | – | –
95 | 59 | 59 | 67 | 2.8 | 422 | > 1000 | 198 | – | – | CCS(=O)(=O)N1CC(N(C)c2ncnc3[nH]ccc23)C2(CC2)C1 (racemic) [Example 62, N-(5-(ethylsulfonyl)-5-azaspiro[2.4]heptan-7-yl)-N-methyl-7H-pyrrolo[2,3-d]pyrimidin-4-amine] | – | –
95 | 79 | 50 | 82 | 8.5 | 412 | 1090 | 252 | about 3.5 fold | – | CN(c1ncnc2[nH]ccc12)[C@H]1CN(C(=O)CC#N)CC12CC2 [Example 5, (R)-3-(7-(methyl(7H-pyrrolo[2,3-d]pyrimidin-4-yl)amino)-5-azaspiro[2.4]heptan-5-yl)-3-oxopropanenitrile] | about 64% | ≥ 60
99 | 99 | 77 | 97 | 5.8 | 58.6 | 110 | 24.7 | – | – | CN(c1ncnc2[nH]ccc12)[C@H]1CN(S(=O)(=O)c2cccc(C#N)c2)CC12CC2 [Example 41, (R)-3-((7-(methyl(7H-pyrrolo[2,3-d]pyrimidin-4-yl)amino)-5-azaspiro[2.4]heptan-5-yl)sulfonyl)benzonitrile] | – | –
65 | -15 | 17 | -16 | 787 | > 1000 | > 1000 | > 1000 | – | – | CN(c1ncnc2[nH]ccc12)[C@@H]1CN(C(=O)CC#N)CC12CC2 [Example 66, (S)-3-(7-(methyl(7H-pyrrolo[2,3-d]pyrimidin-4-yl)amino)-5-azaspiro[2.4]heptan-5-yl)-3-oxopropanenitrile] | – | –
14 | -5 | -7 | 2 | – | – | – | – | – | – | CN(c1ncnc2[nH]ccc12)[C@@H]1CN(C(=O)c2ccc(C#N)cc2)CC12CC2 [Example 68, (S)-4-(7-(methyl(7H-pyrrolo[2,3-d]pyrimidin-4-yl)amino)-5-azaspiro[2.4]heptane-5-carbonyl)benzonitrile] | – | –
58 | 6 | 9 | 36 | – | – | – | – | – | – | CN(c1ncnc2[nH]ccc12)[C@@H]1CN(C(=S)CC#N)CC12CC2 [Example 69, (S)-3-(7-(methyl(7H-pyrrolo[2,3-d]pyrimidin-4-yl)amino)-5-azaspiro[2.4]heptan-5-yl)-3-thioxopropanenitrile] | – | –
31 | 24 | -3 | 5 | – | – | – | – | – | – | CC(C)COC(=O)N1C[C@@H](N(C)c2ncnc3[nH]ccc23)C2(CC2)C1 [Example 70, isobutyl (S)-7-(methyl(7H-pyrrolo[2,3-d]pyrimidin-4-yl)amino)-5-azaspiro[2.4]heptane-5-carboxylate] | – | –
40 | 13 | -22 | 12 | – | – | – | – | – | – | CCS(=O)(=O)N1C[C@@H](N(C)c2ncnc3[nH]ccc23)C2(CC2)C1 [Example 71, (S)-N-(5-(ethylsulfonyl)-5-azaspiro[2.4]heptan-7-yl)-N-methyl-7H-pyrrolo[2,3-d]pyrimidin-4-amine] | – | –
55 | 10 | -1 | 28 | – | – | – | – | – | – | CN(c1ncnc2[nH]ccc12)[C@@H]1CN(S(=O)(=O)c2ccccc2)CC12CC2 [Example 72, (S)-N-methyl-N-(5-(phenylsulfonyl)-5-azaspiro[2.4]heptan-7-yl)-7H-pyrrolo[2,3-d]pyrimidin-4-amine] | – | –
– | – | – | – | – | – | – | – | – | 100 | C[C@@H]1CCN(C(=O)CC#N)C[C@@H]1N(C)c1ncnc2[nH]ccc12 [tofacitinib citrate, reference compound] | – | –

Structure (SMILES) | inhibition at 1 µM [1] [%] | inhibition at 1 µM [2] [%] | inhibition at 1 µM [3] [%] | inhibition at 1 µM [4] [%] | IC50 [5] [nM] | IC50 [6] [nM] | IC50 [7] [nM] | IC50 [8] [nM] | JAK1 inhibitory activity relative to the racemic mixture (Example 55) ([5]; from IC50 values 8.5 nM vs 29.3 nM) | inhibition at 1 µM ([8]; read-out: TYK2 kinase-phosphorylation inhibitory level (% inhibition)) [%] | inhibition of hind paw edema as compared to the control group ([9]; 49th day after the first immunization (end of measurement)) | inhibition of hind paw edema as compared to the control group ([9]; from the 31st day after the first immunization onwards) [%]
CCN1C[C@H](N(C)c2ncnc3[nH]ccc23)C2(CC2)C1 [Example 73, (R)-N-(5-ethyl-5-azaspiro[2.4]heptan-7-yl)-N-methyl-7H-pyrrolo[2,3-d]pyrimidin-4-amine] | 42 | -6 | 1 | -7 | – | – | – | – | – | – | – | –
